For one test, the system named is OVCAR-3. The test is described as follows: Cytotoxicity against human OVCAR-3 cells assessed as inhibition of cell growth incubated for 72 hrs by CellTiter 96 Aqueous One Solution based assay. The note with it: OVCAR-3, 72 h. The class given is functional.
A further test deals with MDA-MB-435. As to the kind of experiment: Cytotoxicity against human MDA-MB-435 cells assessed as inhibition of cell growth incubated for 72 hrs by CellTiter 96 Aqueous One Solution based assay. The note with it: MDA-MB-435, 72 h. The class given is functional.

Usually IC50 stands for the concentration that inhibits the measured activity by half. For the compound `CCCCCC[C@@H]1CCCC[C@@H](O)[C@H](C)C(=O)O[C@@H]([C@H](C)CC)C(=O)N[C@@H](Cc2ccccc2)C(=O)O1`, the half-inhibitory concentration (IC50) in the test with OVCAR-3 was determined as 3100 nM; in the test on MDA-MB-435 it was 5200 nM.

`CCCCCC[C@@H]1CCCC[C@@H](O)[C@H](C)C(=O)O[C@@H](C(C)C)C(=O)N[C@@H](Cc2ccccc2)C(=O)O1`: the values for the IC50 in the test on OVCAR-3 and with MDA-MB-435 were 2400 nM and 2900 nM, respectively.

In the case of `CC(=O)O[C@H]1C(=O)[C@@]2(C)[C@H]([C@H](OC(=O)c3ccccc3)[C@]3(O)C[C@H](OC(=O)[C@H](O)[C@@H](NC(=O)c4ccccc4)c4ccccc4)C(C)=C1C3(C)C)[C@]1(OC(C)=O)CO[C@@H]1C[C@@H]2O` [PACLITAXEL], the values for the IC50 with OVCAR-3 and in the test on MDA-MB-435 were 2.2 nM and 0.52 nM, respectively.

The values above are taken from ChEMBL document CHEMBL6153169, “Menominin A and B: Cytotoxic Cyclodepsipeptides from the Freshwater Sponge-Associated Cyanobacterium Nostoc sp. UIC 10607” (J Nat Prod, 2025).
